Where two headings read alike, the source gives them in different places. Blank lines part the entries; values can stand above or below the compound they belong to.
What was measured:
[1] = molecular target: T1, recombinant human 5-HT6 receptor (Homo sapiens, UniProt P50406); experiment: Determination of Kb values for 5-HT6 receptor (CHO pCRE-Luc reporter assay); format: cell-based; settings: antagonism of 10 uM serotonin, luciferase reporter, CHO cells
T1 construct: expressed in transfected cells
Method: A stable CHO cell line expressing recombinant human 5-HT6 receptor and pCRE-Luc reporter system was used for cell-based assay. The assay offers a non-radioactive based approach to determine binding of a compound to GPCRs. In this specific assay, the level of intracellular cyclic AMP which is modulated by activation or inhibition of the receptor is measured. The recombinant cells harbor luciferase reporter gene under the control of cAMP response element.
The above cells were grown in 96 well clear bottom white plates in Hams F12 medium containing 10% fetal bovine serum (FBS). Prior to the addition of compounds and/or agonist, cells were serum starved overnight. Increasing concentrations of test compounds were added along with 10 uM serotonin in Hams F12 medium containing 1% dialyzed FBS to the cells. The incubation was continued at 37° C. in CO2 incubator for 4 hours. Medium was removed and cells were washed with phosphate buffered saline. The cells were lysed and luciferase activity was measured in a Luminometer. Luminescence units were plotted against the compound concentrations using Graphpad software. EC50 values of the compounds were defined as the concentration required reducing the luciferase activity by 50%. The Kb values were calculated by feeding the concentration of the agonist used in the assay and its EC50 value in the same software.

[2] = Rodent pharmacokinetic study; format: in vivo; settings: Wistar/Male rat, 10 mg/kg; for AUCt / Cmax / T1/2 / Tmax / AUC(0-t) / half-life: vehicle water (Ex. 8: 50% PEG 400); for bioavailability: Oral vs Intravenous
Method: Male wistar rats (230-280 grams) obtained from NIN (National Institute of Nutrition, Hyderabad, India) were used as an experimental animal. Three to five animals were housed in each cage. Animals were kept fasted over night and maintained on a 12 hours light/dark cycle. Three rats were dosed NCE (10 mg/Kg) orally and intravenously on day 0 and day 2.
At each time point blood was collected by jugular vein. Plasma was stored frozen at −20° C. until analysis. The concentrations of the NCE compound in plasma were determined using LC-MS/MS method. Schedule time points: Pre dose 0.25, 0.5, 1, 1.5, 2, 3, 4, 6, 8, 10, 12 and 24 hours after dosing (n=3). The NCE compounds were quantified in plasma by validated LC-MS/MS method using solid phase extraction technique. NCE compounds were quantified in the calibration range of 2-2000 ng/mL in plasma. Study samples were analyzed using calibration samples in the batch and quality control samples spread across the batch.
Pharmacokinetic parameters Cmax, Tmax, AUCt, T1/2 and Bioavailability were calculated by non-compartmental model using software WinNonlin version 5.1.

[3] = Object recognition task model; format: in vivo; settings: rat, 10 mg/kg, p.o.
Method: The cognition-enhancing properties of compounds of this invention were estimated using a model of animal cognition: the object recognition task model.
Male Wister rats (230-280 grams) obtained from N.I.N. (National Institute of Nutrition, Hyderabad, India) was used as experimental animals. Four animals were housed in each cage. Animals were kept on 20% food deprivation before one day and given water ad libitum throughout the experiment and maintained on a 12 hours light/dark cycle. Also the rats were habituated to individual arenas for 1 hour in the absence of any objects.
One group of 12 rats received vehicle (1 mL/Kg) orally and another set of animals received compound of the formula (I) either orally or i.p., before one hour of the familiar (T1) and choice trial (T2).
The experiment was carried out in a 50×50×50 cm open field made up of acrylic. In the familiarization phase, (T1), the rats were placed individually in the open field for 3 minutes, in which two identical objects (plastic bottles, 12.5 cm height×5.5 cm diameter) covered in yellow masking tape alone (a1 and a2) were positioned in two adjacent corners, 10 cm. from the walls. After 24 hours of the (T1) trial for long-term memory test, the same rats were placed in the same arena as they were placed in T1 trial. Choice phase (T2) rats were allowed to explore the open field for 3 minutes in presence of one familiar object (a3) and one novel object (b) (Amber color glass bottle, 12 cm high and 5 cm in diameter). Familiar objects presented similar textures, colors and sizes. During the T1 and T2 trial, explorations of each object (defined as sniffing, licking, chewing or having moving vibrissae whilst directing the nose towards the object at a distance of less than 1 cm) were recorded separately by stopwatch. Sitting on an object was not regarded as exploratory activity, however, it was rarely observed. T1 is the total time spent exploring the familiar objects (a1+a2). T2 is the total time spent exploring the familiar object and novel object (a3+b).
The object recognition test was performed as described by Ennaceur, A., Delacour, J., 1988, A new one-trial test for neurobiological studies of memory in rats—Behavioural data, Behav. Brain Res., 31, 47-59.

[4] = Water maze (scopolamine induced reversal); format: in vivo; settings: rat, p.o.
Method: The water maze apparatus consisted of a circular pool (1.8 m diameter, 0.6 m high) constructed in black Perspex (TSE systems, Germany) filled with water (24±2° C.) and positioned underneath a wide-angled video camera to track animal. The 10 cm^2 perspex platform, lying 1 cm below the water surface, was placed in the centre of one of the four imaginary quadrants, which remained constant for all rats. The black Perspex used in the construction of the maze and platform offered no intramaze cues to guide escape behavior. By contrast, the training room offered several strong extramaze visual cues to aid the formation of the spatial map necessary for escape learning. An automated tracking system, [Videomot 2 (5.51), TSE systems, Germany] was employed. This program analyzes video images acquired via a digital camera and an image acquisition boards that determined path length, swim speed and the number of entries and duration of swim time spent in each quadrant of the water maze.

[5] = in vivo; cited from earlier work

T1 sequence (P50406 whole entry): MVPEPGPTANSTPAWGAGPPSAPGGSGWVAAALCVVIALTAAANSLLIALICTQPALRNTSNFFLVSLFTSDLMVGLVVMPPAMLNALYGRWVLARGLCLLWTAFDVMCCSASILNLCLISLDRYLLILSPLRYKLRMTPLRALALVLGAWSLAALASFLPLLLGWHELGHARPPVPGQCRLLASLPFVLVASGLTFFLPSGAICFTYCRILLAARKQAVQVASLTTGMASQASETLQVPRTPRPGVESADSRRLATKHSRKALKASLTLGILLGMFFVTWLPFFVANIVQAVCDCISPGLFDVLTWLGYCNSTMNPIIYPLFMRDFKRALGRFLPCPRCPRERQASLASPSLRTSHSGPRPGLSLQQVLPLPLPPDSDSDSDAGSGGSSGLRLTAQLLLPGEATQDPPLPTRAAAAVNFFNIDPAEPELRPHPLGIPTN

Compound: Cc1ccc(S(=O)(=O)c2c[nH]c3cc(Cl)ccc23)cc1NC1CCN(C)CC1 [Example 1, N-[2-methyl-5-(6-chloro-1H-indole-3-ylsulfonyl)phenyl]-N-(1-methypiperidin-4-yl)amine]
Kb [1]: 1550 pM
AUCt ([2]; Intravenous): 2484 ± 853 ng·h/mL
Cmax ([2]; Intravenous): 1644 ± 582 ng/mL
T1/2 ([2]; Intravenous): 5.23 ± 2.08 h
Tmax ([2]; Intravenous): 0.14 ± 0.10 h
bioavailability [2]: 31 ± 12%
AUCt ([2]; Oral): 750 ± 363 ng·h/mL
Cmax ([2]; Oral): 128 ± 13 ng/mL
T1/2 ([2]; Oral): 6.38 ± 1.38 h
Tmax ([2]; Oral): 3.42 ± 2.74 h
Exploration time mean ± S.E.M, Familiar object [3]: 10.10 ± 1.84 s
Exploration time mean ± S.E.M, Novel object [3]: 13.22 ± 2.00 s
Inference [3]: Active
Scopolamine Induced Reversal [4]: ≦10 mg/kg, p.o.

Kb [1]: 220 pM
melting point: 208 to 208.9 °C
Compound: COc1ccc(S(=O)(=O)c2c[nH]c3cc(Cl)ccc23)cc1NC1CCNCC1 [Example 16, N-(Piperidin-4-yl)-N-[2-methoxy-5-(6-chloro-1H-Indole-3-ylsulfonyl)phenyl] amine]
Exploration time mean ± S.E.M, Familiar object [3]: 8.10 ± 1.78 s
Exploration time mean ± S.E.M, Novel object [3]: 12.00 ± 1.84 s
Inference [3]: Active
Scopolamine Induced Reversal [4]: ≦10 mg/kg, p.o.

Kb [1]: 820 pM
AUC(0-t) ([2]; plasma, Intravenous): 5730 ± 2620 ng·h/mL
half-life ([2]; plasma, Intravenous): 3.86 ± 0.09 h
Cmax ([2]; plasma, Intravenous, read-out: Cmax): 4220 ± 2250 ng/mL
Tmax ([2]; plasma, Intravenous, read-out: Tmax): 0.08 h
bioavailability ([2]; plasma, read-out: Bioavailability): 24 ± 2%
AUC(0-t) ([2]; plasma, Oral): 1430 ± 734 ng·h/mL
half-life ([2]; plasma, Oral): 1.86 ± 0.09 h
Cmax ([2]; plasma, Oral, read-out: Cmax): 379 ± 160 ng/mL
Tmax ([2]; plasma, Oral, read-out: Tmax): 3 h
melting point: 88.6 to 91.6 °C
Compound: COc1ccc(S(=O)(=O)c2c[nH]c3cc(Cl)ccc23)cc1NC1CCN(C)CC1 [Example 17, N-(1-Methylpiperidin-4-yl)-N-[2-methoxy-5-(6-chloro-1H-Indole-3-ylsulfonyl)phenyl] amine]

Compound: COc1ccc(NS(=O)(=O)c2sc3ccc(Cl)cc3c2C)cc1N1CCNCC1 [SB-271046, 5-Chloro-N-(4-methoxy-3-piperazin-1-ylphenyl)-3-methyl-2-benzothiophenesulfonamide]
activity in animal tests related to positive or negative symptoms of schizophrenia [5]: inactive

From patent US9018231B2, “Sulfone compounds as 5-HT6 receptor ligands” (Suven Life Sciences Limited, priority 2010, dated 2015)
